Like-named read-outs stand apart in the source and are kept apart here.

For one data set, the system named is pol κ. To be noted: cited from earlier work.
The next data set concerns pol α. Also on record: method as in PMID 20599777. To be noted: cited from earlier work.
The test system of a further data set is mouse pol ι. Also on record: method as in PMID 19223184. To be noted: read-out: IC50 against pol ι; cited from earlier work.
The target in data set [1] is T1, Human pol κ (residues 19–526) (Homo sapiens, UniProt Q9UBT6).
T1 construct: Human pol κ (residues 19–526) was purified as previously reported; made in house
T1 sequence (Q9UBT6 19-526): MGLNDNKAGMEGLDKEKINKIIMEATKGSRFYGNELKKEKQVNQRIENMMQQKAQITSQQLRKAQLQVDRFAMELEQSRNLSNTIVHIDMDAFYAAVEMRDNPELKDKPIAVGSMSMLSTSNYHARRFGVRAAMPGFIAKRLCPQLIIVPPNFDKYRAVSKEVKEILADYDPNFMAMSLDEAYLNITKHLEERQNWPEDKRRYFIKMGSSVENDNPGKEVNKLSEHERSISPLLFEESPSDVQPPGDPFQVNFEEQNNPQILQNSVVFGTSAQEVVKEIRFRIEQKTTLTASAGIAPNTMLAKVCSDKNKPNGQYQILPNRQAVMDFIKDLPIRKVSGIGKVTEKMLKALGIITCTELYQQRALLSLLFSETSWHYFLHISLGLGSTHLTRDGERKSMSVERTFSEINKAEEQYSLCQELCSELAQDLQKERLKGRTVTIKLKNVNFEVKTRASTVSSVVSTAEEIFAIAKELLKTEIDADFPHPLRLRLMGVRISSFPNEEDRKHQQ
Briefly: qHTS fluorescence-based DNA strand displacement assay. It counts as biochemical. The protocol: The substrate used in qHTS was made by the annealing of unlabeled oligodeoxynucleotide primer (5′-TCACCCTCGTACGACTC-3′) and TAMRA-labeled reporter strand (5′-TTTTTTTTTTGC-6-TAMRA-3′) to oligodeoxynucleotide template labeled with BHQ-2 (5′-BHQ-2-[…]-3′) as originally described by Dorjsuren et al.. The annealing mixture of unlabeled primer, TAMRA-labeled reporter, and BHQ-2-labeled template in buffer containing 50 mM Tris-HCl, pH 8.0, 100 mM NaCl, and 5 mM MgCl2 was heated at 95°C for 5 min and allowed to cool gradually to room temperature. The substrate was then stored at −20°C as 50 µM stock.
qHTS was performed in 50 mM Tris-HCI, pH 8.0, 40 mM NaCl, 1 mM MgCl2, 0.01% Tween-20, 2 mM DTT, and 100 µM dTTP. 3 µL of reagents (buffer as negative control and pol κ in the remaining plate at 10 nM final concentration) were dispensed by Flying Reagent Dispenser™ (FRD) (Beckman Coulter, Inc., Fullerton, CA) into a 1,536-well plate. Compounds were delivered as 23 nL in DMSO solution via pintool transfer; vehicle-only control consisted of 23 nL DMSO. The plate was incubated for 15 min at room temperature, and then 1 µL of substrate (50 nM final concentration) was added to initiate the reaction. The plate was immediately transferred into ViewLux reader for kinetic fluorescence data collection.
To lay the foundation for the methodologies to discover and characterize inhibitors of pol κ, we used a fluorescent reporter strand displacement assay (Figure 1 and [27]). The library of bioactive small molecules was tested as seven-point dilution series, with the final concentrations ranging from 2.9 nM to 57 µM.
On the technique in general: Quantitative high-throughput screening tests each substance at several concentrations.

The target of data set [2] is T2, Human pol κ (Homo sapiens, UniProt Q9UBT6).
T2 construct: Human pol κ (residues 19–526) was purified as previously reported; made in house
T2 sequence (Q9UBT6 19-526): T1 sequence (Q9UBT6 19-526)
Kind of data set: Radioactive gel-based primer extension assay on non-damaged DNA, pol κ. It counts as biochemical. Here is the method: (§1) The reactions with pol κ, pol η, and pol ι were carried out in the buffers containing 25 mM Tris-HCl, pH 7.5, 8 mM MgCl2, 10% glycerol, 100 µg/mL bovine serum albumin, and 5 mM DTT. Buffers for pol δ reactions contained 40 mM Hepes-KOH, pH 6.8, 10% glycerol, 200 µg/mL bovine serum albumin, 1 mM DTT, and 8 mM MgCl2. Final concentration of pol κ, pol η, pol ι, or pol δ in the reaction was 0.25 nM, 1 nM, 2.5 nM, or 4 nM, respectively. In this assay, a polymerase was preincubated with the compound for 15 min at room temperature. Primer extensions were then initiated by the addition of DNA substrate at final concentration of 5 nM and carried out for 30 min at room temperature in the presence of 100 µM dCTP and dGTP. The reactions were terminated by the addition of an equal volume of a dye solution containing 95% (v/v) formamide, 10 mM EDTA, 0.03% (w/v) xylene cyanol, and 0.03% (w/v) bromphenol blue. Reaction products were separated through a 15% acrylamide gel containing 8 M urea and visualized with a PhosphorImager screen. The ratio of extended primer to the total amount of primer was measured using ImageQuant 5.2 software to calculate the percentage of primer extended. IC50 values were determined by fitting the data to variable slope four-parameter equations using GraphPad Prism 5.

Data set [3] concerns the target T2, Human pol κ. Briefly: Radioactive gel-based primer extension (TLS) past acrolein-derived ring-opened reduced form of γ-HOPdG, pol κ. Format: biochemical. The protocol:
as §1
The primary role of pol κ is to bypass DNA lesions. Therefore, it was critical to establish the assays to investigate the capability of these compounds to inhibit lesion bypass activity of pol κ. Radioactive gel-based primer extension reactions were carried out using a DNA substrate containing a site-specific acrolein-derived ring-opened reduced form of γ-HOPdG, a lesion that pol κ can efficiently bypass in vitro [13].

The next data set has as its system XP30RO cells (XP-V). Briefly: Cell survival assay, crystal violet, with or without UV. To be noted: crystal violet; inhibitor 6 h then UV 1.5, 4.5 or 7.5 J/m^2; candesartan cilexetil 24 µM.
Data set [4] concerns double-stranded DNA ladder. Kind of data set: DNA intercalation assay (agarose gel shift of DNA ladder). Format: binding. To be noted: 0.75 or 3 nmol compound with 1.5 nmol DNA, 1% agarose gel. The protocol: Candesartan cilexetil or ethidium bromide was incubated with 1.5 nmol of double-stranded DNA ladder for 15 min at room temperature in the buffer containing 50 mM Tris-HCl, pH 8.0, 0.01% Tween-20, 1 mM DTT, and 40 mM NaCl. The reaction mixtures were run on 1% agarose gel and stained with ethidium bromide (0.5 µg/ml) for visualization.
Figure 7 The non-DNA-intercalating property of candesartan cilexetil. Candesartan cilexetil or ethidium bromide was incubated with double-stranded DNA ladder, and the reaction products were run on 1% agarose gel and stained with ethidium bromide. Lane 1: No compound. Lane 2: 0.75 nmol of candesartan cilexetil was incubated with 1.5 nmol DNA. Lane 3: 3 nmol of candesartan cilexetil was incubated with 1.5 nmol DNA. Lane 4: 0.75 nmol of ethidium bromide was incubated with 1.5 nmol DNA. Lane 5: 3 nmol of ethidium bromide was incubated with 1.5 nmol DNA.
(A gel shift assay detects complexes by their altered migration in electrophoresis.)

Method for XP30RO cells (XP-V): Cell survival assays were carried out using crystal violet assays and CellTiter-Glo Luminescent Cell Viability Assays. In crystal violet assays, XP30RO cells were plated into clear 96-well plates at a density of 8000 cells/mL and incubated overnight at 37°C, 5% CO2. The cells were treated with (1) inhibitor alone for 6 h or (2) UV alone or (3) inhibitor alone for 6 h followed by UV irradiation. After 2 days, cells were fixed with 4% paraformaldehyde and stained with 0.5% crystal violet dye. The dye was dissolved in 10% acetic acid and absorbance measurement was taken at OD595 nm with Infinite® M200 plate reader (Tecan, Durham, NC). For the CellTiter-Glo Luminescent Cell Viability Assays, the same procedures as crystal violet assays were used except that white/clear bottom 96-well plates were used and cell viability was measured following manufacturer's recommendations.
XP30RO cells were treated with 24 µM of candesartan cilexetil alone, UV alone at 1.5 J/m^2, 4.5 J/m^2, or 7.5 J/m^2, or in combination. Percent survival was calculated by normalizing the data using the cell survival of untreated cells. The data were obtained from three independent experiments.

What is called IC50 is the concentration needed to halve the response being measured. For `O=C(OC[C@H]1O[C@@H](OC(=O)c2cc(O)c(O)c(O)c2)[C@H](OC(=O)c2cc(O)c(O)c(O)c2)[C@@H](OC(=O)c2cc(O)c(O)c(O)c2)[C@@H]1OC(=O)c1cc(O)c(O)c(O)c1)c1cc(O)c(O)c(O)c1` [penta-1,2,3,4,6-O-galloyl-beta-D-glucose], the IC50 in the data set on pol κ was 0.03 µM; with pol α it was 0.013 µM.

`C/C=C/C(=O)C1=C(OC)OC(C)(/C=C/C=C/C(C)O)C1=O` (stereo not drawn) [Penicilliol A]: in the data set with mouse pol ι, the IC50 is 19.8 µM.

With `CCCCCCCCCCCC(=O)Oc1cccc2c1C(=O)C=CC2=O` [C12:0-Acyl juglone], in the data set with pol κ, the IC50 is 6.8 µM.

Turning to `COC1=C(C(=O)CC(C)O)C(=O)C(C)(/C=C/C=C/C(C)O)O1` (stereo not drawn) [Penicilliol B], the IC50 with mouse pol ι was 32.5 µM.

Take `C/C=C/c1occ(C(=O)c2c(OC)cc(OC)cc2C(=O)OC)c(=O)c1OC` [3-O-methylfunicone]: in the data set on pol κ, the IC50 is 12.5 µM.

As for `CC1=CC[C@H]2C(C)(C)CCC[C@]2(C)[C@H]1CCCCCCCCCCCCCCCCC(=O)O` (relative stereo) [(1S*,4aS*,8aS*)-17-(1,4,4a,5,6,7,8,8a-octahydro-2,5,5,8a-tetramethylnaphthalen-1-yl)heptadecanoic acid], the IC50 in the data set with pol κ is 7.2 µM.

As for `CC1=C(CC/C(C)=C/CCC2=CC[C@H](C3=CC(=O)O[C@H]3O)O[C@H]2O)C(C)(C)CCC1` [manoalide], the IC50 in data set [1] worked out at 9.5 µM; on Human pol κ [2] it was 3.4 ± 0.9 µM; at Human pol κ [3] it was 5.6 ± 0.9 µM. In addition, the “Effect on UV-induced cytotoxicity” value with XP30RO cells (XP-V) was “failed to enhance UV toxicity”.

As for C18:1-Acyl juglone, the half-inhibitory concentration (IC50) with pol κ was 8.1 µM.

For `CC[n+]1c(-c2ccccc2)c2cc(N)ccc2c2ccc(N)cc21` [ethidium bromide], in data set [4], the “DNA migration pattern (intercalation)” value is listed as “bands shifted upwards”.

On to `CC1(C)[C@@H](O)CC[C@]2(C)[C@H]3C(=O)C=C4[C@@H]5C[C@@](C)(C(=O)O)CC[C@]5(C)CC[C@@]4(C)[C@]3(C)CC[C@@H]12` [Glycyrrhetinic acid], for which the IC50 in the data set on pol κ was 15.8 µM.

`CC(C)c1ccc2c(c1)c(SC(C)(C)C)c(CC(C)(C)C(=O)O)n2Cc1ccc(Cl)cc1` [MK-886]: the IC50 in data set [1] (fluorescence strand displacement, 10 nM pol κ, 50 nM substrate, 100 µM dTTP, read-out: qHTS: IC50) is 30 µM; at Human pol κ [2] (primer extension, non-damaged DNA, 0.25 nM pol κ, average ± standard error, three experiments, read-out: gel: non-damaged: IC50), 13 ± 1.7 µM; at Human pol κ [3] (primer extension, adducted DNA, 0.25 nM pol κ, average ± standard error, three experiments, read-out: gel: ring-opened reduced form of γ-HOPdG: IC50), 14 ± 0.9 µM. For the same compound, the “Effect on UV-induced cytotoxicity” value in the data set on XP30RO cells (XP-V) was “failed to enhance UV toxicity”.

(Values after article PMC3466269, “A Comprehensive Strategy to Discover Inhibitors of the Translesion Synthesis DNA Polymerase κ” (PLoS ONE, 2012).)
